The values that follow are results of earlier work, collected in patent publication US7276608B2, “Tetrahydroquinoline derivatives as cannabinoid receptor modulators” (Bristol-Myers Squibb Company, priority 2003, dated 2007).

The conditions of data set [1]: 16 week trial period, Phase IIb.
For data set [2] the following is noted: chronic administration for two weeks.

In the case of `Cc1c(C(=O)NN2CCCCC2)nn(-c2ccc(Cl)cc2Cl)c1-c1ccc(Cl)cc1` [SR-141716], the “body weight in human subjects” value in data set [1] was “dose-dependently reduced body weight”.

On to `Cc1c(C(=O)NN2CCCCC2)nn(-c2ccc(Cl)cc2Cl)c1-c1ccc(I)cc1` [AM-251], for which the body weight entry in data set [2] is recorded as “substantial body weight reduction”.
